Assays:
[1] = refractive index (Na D-line) (dimensionless); xn = mol fraction of the nth substance listed; conditions: 101 kPa, Liquid, Standard Abbe refractometry
[2] = xn = mol fraction of the nth substance listed; conditions: 101 kPa, Liquid; for speed of sound: Pulse-echo method

CC1CCCCC1 [methylcyclohexane] + Cc1ccc(C)cc1
Conditions	mass density, [2] [kg/m3]	refractive index, [1]	speed of sound, [2] [m/s]
298.15 K, x1 = 0.0513	851.4	1.48906	1303
298.15 K, x1 = 0.0979	846.7	1.48531	1297
298.15 K, x1 = 0.1917	837.2	1.47789	1285
298.15 K, x1 = 0.3009	826.5	1.46944	1272
298.15 K, x1 = 0.3971	817.3	1.46214	1262
298.15 K, x1 = 0.4963	808	1.4548	1252
298.15 K, x1 = 0.5987	798.8	1.44757	1243
298.15 K, x1 = 0.6966	789.9	1.44052	1234
298.15 K, x1 = 0.7958	781.6	1.43389	1227
298.15 K, x1 = 0.8922	773.4	1.42739	1221
298.15 K, x1 = 0.9501	768.9	1.42377	1217
298.15 K, x1 = 1	765	1.42062	1215
313.15 K, x1 = 0.0506	838.4	1.48121	1242
313.15 K, x1 = 0.1051	832.9	1.4771	1234
313.15 K, x1 = 0.204	823.1	1.46914	1221
313.15 K, x1 = 0.3096	812.6	1.46083	1209
313.15 K, x1 = 0.4064	803.4	1.45361	1198
313.15 K, x1 = 0.5061	794	1.44635	1188
313.15 K, x1 = 0.605	785.1	1.43928	1179
313.15 K, x1 = 0.7057	776.2	1.43227	1170
313.15 K, x1 = 0.8112	767.2	1.42509	1162
313.15 K, x1 = 0.9095	759	1.41853	1155
313.15 K, x1 = 0.9599	755	1.41538	1152
313.15 K, x1 = 1	751.9	1.41274	1150

Cc1ccc(C)cc1 [1,4-dimethylbenzene] + C1CCCCC1
Conditions	mass density, [2] [kg/m3]	refractive index, [1]	speed of sound, [2] [m/s]
298.15 K, x2 = 0	856.6	1.49312	1310
298.15 K, x2 = 0.0459	852.9	1.49003	1306
298.15 K, x2 = 0.0952	848.6	1.4866	1301
298.15 K, x2 = 0.1948	840.1	1.47959	1292
298.15 K, x2 = 0.2874	832.3	1.47324	1284
298.15 K, x2 = 0.3929	823	1.4656	1275
298.15 K, x2 = 0.4964	814.1	1.45843	1269
298.15 K, x2 = 0.5938	805.7	1.45142	1263
298.15 K, x2 = 0.6949	797.2	1.44417	1258
298.15 K, x2 = 0.7906	789.5	1.43762	1254
298.15 K, x2 = 0.8927	781.5	1.43057	1253
298.15 K, x2 = 0.9493	777.5	1.42692	1253
313.15 K, x2 = 0	843.5	1.48444	1248
313.15 K, x2 = 0.0494	839.4	1.48145	1243
313.15 K, x2 = 0.1056	834.5	1.47781	1238
313.15 K, x2 = 0.2078	825.8	1.47072	1228
313.15 K, x2 = 0.3149	816.5	1.46341	1218
313.15 K, x2 = 0.4156	807.5	1.45628	1209
313.15 K, x2 = 0.5115	799.2	1.44953	1202
313.15 K, x2 = 0.6083	790.9	1.44272	1195
313.15 K, x2 = 0.7079	782.5	1.43584	1189
313.15 K, x2 = 0.8167	773.7	1.42845	1184
313.15 K, x2 = 0.9109	766.2	1.42167	1182
313.15 K, x2 = 0.9601	762.5	1.41809	1181

— the NIST ThermoML archive (doi:10.1021/je901020a)
